Assay results reported in patent US9981897B2, “Ethers of bis(hydroxymethyl)cyclohexanes” (BASF SE, priority 2011, dated 2018).

Experiments:
[1] = toxicological assessment
[2] = stability of the ether groups; assay type: physicochemical
[3] = dissolution / solvent properties for ingredients of fragrance-comprising preparations; assay type: physicochemical; settings: for customary ingredients in fragrance-comprising preparations
Description: The term “exceptional dissolution properties” refers to the solubility and also the solubilization in the perfumery application, i.e. both in the perfume oil itself, and also in the application matrix, such as soaps, creams, deodorants and others.
“Exceptional” dissolution properties are present for example if virtually all customary substances which can be used in such formulations are soluble in the solvent. “Good” dissolution properties are present if virtually all important substances which are used in such formulations are soluble in this solvent. “Moderate” dissolution properties are present if only a small fraction of the important substances is soluble or dispersible. Such substances, their importance and also the testing of the solubility in solvents are known to the person skilled in the art.

CCOCC1CCC(COCC)CC1 (stereo not drawn) [Compound I, cyclohexanedimethanol diethyl ether]
toxicological properties [1]: toxicologically acceptable
stability of the ether groups [2]: very high

CCOC[C@H]1CC[C@H](COCC)CC1 [Compound I-trans, Trans-1,4-Cyclohexanedimethanol Diethyl Ether]
dissolution properties [3]: exceptional
